From patent publication US3984432A, “Color photographic recording material” (priority 1973, dated 1976)

Assay: Absorption maximum after colour development in a photographic silver halide layer according to Use Example I
Assay type: physicochemical
Conditions: pyrazolone coupling agents
Method: The compounds of the formulae which follow are prepared according to methods which are in themselves known, from the corresponding 4-equivalentcoupling agents (the corresponding compounds with hydrogen in the position marked with *, in place of the substituents drawn). With regard to methods of manufacture, compare DT-OS or DT-AS 1,236,332, 2,043,271, 1,547,672 or 1,187,477. Next to the formula, the absorption maximum in nm is specified in each case (see footnote to Table I). ##SPC8##
*)After colour development of the coupling agents in a photographic silve
halide layer according to Use Example I
0.3 mmol of coupling agent of the formula (215) is dissolved in 2.0 ml of tricresyl phosphate/methylene chloride (3:7). The methylene chloride is evaporated off, 6.0 ml of an 8% strength aqueous solution of sodium isopropylnaphthalene-sulphonate, 20.0 ml of 6% strength gelatine solution and 3.4 ml of water are added and the mixture is adjusted to pH 6.5 and emulsified for 5 minutes by means of an ultrasonic apparatus with an output of 100 watt.
5.0 of coupling agent emulsion freshly treated with ultrasonics, 3.3 ml of silver bromide emulsion of pH 6.5, containing 1.4% of silver and 6.0% of gelatine, 2.0 ml of 1% strength aqueous solution of the hardener of the formula [formula] and 1.7 ml of water are mixed with one another and cast at 40°C on a substrated glass plate of size 13 cm × 18 cm. After solidifying at 10° C, the plate is dried in a drying cabinet with circulating air at 32° C.
A strip cut to 4.0 cm × 6.5 cm is exposed to 500 Lux/cm^2 under a step wedge for 2 seconds and is subsequently treated at 24° C as follows: […]

Row | SMILES | Abs.max., first of two maxima (subsidiary maximum) | Abs.max., second of two maxima (absorption maximum)
1 | CCCCOP(=O)(CCCOc1ccc(C(=O)Nc2cccc(C(=O)NC3=NN(c4c(Cl)cc(Cl)cc4Cl)C(=O)C3)c2)c(OCCCP(=O)(OCCCC)OCCCC)c1)OCCCC [(248)] | 436 nm | 541 nm
2 | CCCCC(CC)COP(=O)(CCCOc1ccc(C(=O)Nc2cccc(C(=O)NC3=NN(c4c(Cl)cc(Cl)cc4Cl)C(=O)C3)c2)c(OCCCP(=O)(OCC(CC)CCCC)OCC(CC)CCCC)c1)OCC(CC)CCCC (stereo not shown) [(251)] | 436 nm | 540 nm
3 | CCCCOP(=O)(CCCOc1cc(OCCCP(=O)(OCCCC)OCCCC)cc(C(=O)NC2=NN(c3ccc(C#N)cc3)C(=O)C2)c1)OCCCC [(253)] | 440 nm | 540 nm
4 | CCCCOP(=O)(CCCOc1cc(OCCCP(=O)(OCCCC)OCCCC)cc(C(=O)NC2=NN(c3c(C)c(Cl)c(OC)c(Cl)c3Cl)C(=O)C2)c1)OCCCC [(254)] | 438 nm | 540 nm
5 | CCCCOP(=O)(CCCOc1cc(OCCCP(=O)(OCCCC)OCCCC)cc(C(=O)Nc2cccc(C(=O)NC3=NN(c4cccc(Cl)c4)C(=O)C3)c2)c1)OCCCC [(255)] | 438 nm | 536 nm
6 | CCCCC(CC)COP(=O)(CCCOc1cccc(C(=O)Nc2cccc(C(=O)NC3=NN(c4cccc(Cl)c4)C(=O)C3)c2)c1)OCC(CC)CCCC (stereo not shown) [(256)] | 438 nm | 534 nm
7 | CCCCOP(=O)(CCCOc1cc(OCCCP(=O)(OCCCC)OCCCC)cc(C(=O)NC2=NN(c3nc4ccccc4s3)C(=O)C2)c1)OCCCC [(257)] | 430 nm | 537 nm
8 | CCCCOP(=O)(CCCOc1cc(OCCCP(=O)(OCCCC)OCCCC)cc(C(=O)Nc2cccc(C(=O)NC3=NN(c4nc5ccccc5s4)C(=O)C3)c2)c1)OCCCC [(258)] | 550 nm | 580 nm
9 | CCCCC(CC)COP(=O)(CCCOc1cccc(C(=O)Nc2cccc(C(=O)NC3=NN(c4nc5ccccc5s4)C(=O)C3)c2)c1)OCC(CC)CCCC (stereo not shown) [(259)] | 548 nm | 583 nm
10 | CCCCOP(=O)(CCCOc1cc(OCCCP(=O)(OCCCC)OCCCC)cc(C(=O)Nc2cccc(C(=O)NC3=NN(c4c(C)cc(OC)cc4Cl)C(=O)C3)c2)c1)OCCCC [(260)] | 440 nm | 535 nm
11 | CCCCOP(=O)(CCCOc1cc(OCCCP(=O)(OCCCC)OCCCC)cc(C(=O)Nc2cccc(C(=O)NC3=NN(c4c(C)cc(C)cc4Cl)C(=O)C3)c2)c1)OCCCC [(261)] | 440 nm | 535 nm
12 | CCCCC(CC)COP(=O)(CCCOc1cccc(C(=O)Nc2cccc(C(=O)NC3=NN(c4c(C)cc(C)cc4Cl)C(=O)C3)c2)c1)OCC(CC)CCCC (stereo not shown) [(262)] | 440 nm | 536 nm
13 | CCCCC(CC)COP(=O)(CCCOc1cc(OCCCP(=O)(OCC(CC)CCCC)OCC(CC)CCCC)cc(C(=O)Nc2cccc(C(=O)NC3=NN(c4c(C)cc(C)cc4Cl)C(=O)C3)c2)c1)OCC(CC)CCCC (stereo not shown) [(263)] | 440 nm | 534 nm
14 | CCCCC(CC)COP(=O)(CCCOc1cccc(C(=O)Nc2cccc(C(=O)NC3=NN(c4c(C)cc(OC)cc4Cl)C(=O)C3)c2)c1)OCC(CC)CCCC (stereo not shown) [(264)] | 440 nm | 536 nm
15 | CCCCOP(=O)(CCCOc1cc(OCCCP(=O)(OCCCC)OCCCC)cc(C(=O)Nc2cccc(C(=O)NC3=NN(c4c(Cl)cc(Cl)cc4OC)C(=O)C3)c2)c1)OCCCC [(265)] | 436 nm | 537 nm
16 | CCCCOP(=O)(CCCOc1cc(OCCCP(=O)(OCCCC)OCCCC)cc(C(=O)Nc2cccc(C(=O)NC3=NN(c4c(Cl)cc(OC)cc4Cl)C(=O)C3)c2)c1)OCCCC [(266)] | 436 nm | 540 nm
17 | CCCCC(CC)COP(=O)(CCCOc1cccc(C(=O)Nc2cccc(C(=O)NC3=NN(c4c(Cl)cc(OC)cc4Cl)C(=O)C3)c2)c1)OCC(CC)CCCC (stereo not shown) [(267)] | 436 nm | 536 nm
18 | CCCCC(CC)COP(=O)(CCCOc1cccc(C(=O)Nc2cccc(C(=O)NC3=NN(c4c(Cl)cc(Cl)cc4OC)C(=O)C3)c2)c1)OCC(CC)CCCC (stereo not shown) [(268)] | 438 nm | 540 nm
19 | CCCCC(CC)COP(=O)(CCCOc1cccc(C(=O)Nc2cccc(C(=O)NC3=NN(c4c(C)cc(Cl)cc4Cl)C(=O)C3)c2)c1)OCC(CC)CCCC (stereo not shown) [(269)] | 438 nm | 540 nm
20 | CCCCC(CC)COP(=O)(CCCOc1cccc(OCC(=O)Nc2cccc(C(=O)NC3=NN(c4c(Cl)cc(Cl)cc4Cl)C(=O)C3)c2)c1)OCC(CC)CCCC (stereo not shown) [(270)] | 438 nm | 544 nm
21 | CCCCC(CC)COP(=O)(CCCOc1cccc(OCC(=O)Nc2cccc(C(=O)NC3=NN(c4c(C)cc(C)cc4Cl)C(=O)C3)c2)c1)OCC(CC)CCCC (stereo not shown) [(271)] | 440 nm | 532 nm
22 | CCCCOP(=O)(CCCOc1cc(OCCCP(=O)(OCCCC)OCCCC)cc(C(=O)Nc2cccc(C(=O)NC3=NN(c4c(C)cc(Cl)cc4Cl)C(=O)C3)c2)c1)OCCCC [(272)] | 438 nm | 540 nm
23 | CCCCOP(=O)(CCCOc1cc(OCCCP(=O)(OCCCC)OCCCC)cc(C(=O)Nc2cccc(NC(=O)NC3=NN(c4c(Cl)cc(Cl)cc4Cl)C(=O)C3)c2)c1)OCCCC [(273)] | 430 nm | 547 nm
24 | CCCCC(CC)COP(=O)(CCCOc1cccc(C(=O)Nc2cccc(NC(=O)NC3=NN(c4c(Cl)cc(Cl)cc4Cl)C(=O)C3)c2)c1)OCC(CC)CCCC (stereo not shown) [(274)] | 430 nm | 546 nm
25 | CCCCOP(=O)(CCCOc1cccc(C(=O)Nc2cccc(C(=O)NC3=NN(c4ccc(S(C)(=O)=O)cc4)C(=O)C3)c2)c1)OCCCC [(275)] | 440 nm | 538 nm
26 | CCOP(=O)(CCCOc1cccc(NC2=NN(c3ccccc3)C(=O)C2)c1)OCC [(401)] | 429 nm | 524 nm
27 | CCOP(=O)(CCCOc1cccc(NC2=NN(c3cccc(Cl)c3)C(=O)C2)c1)OCC [(402)] | 430 nm | 534 nm
28 | CCOP(=O)(CCCOc1cccc(NC2=NN(c3c(Cl)cc(Cl)cc3Cl)C(=O)C2)c1)OCC [(403)] | 424 nm | 526 nm
29 | CCOP(=O)(CCCOc1ccc(NC2=NN(c3c(Cl)cc(Cl)cc3Cl)C(=O)C2)cc1)OCC [(404)] | 425 nm | 530 nm
